Measured values: ChEMBL document CHEMBL1629615, “Intrapulmonary pharmacokinetics and pharmacodynamics of posaconazole at steady state in healthy subjects” (Antimicrob Agents Chemother, 2009)

Experiments:
[1] = AUC (0 to 24 hrs) in healthy human plasma at 200 mg, po every 12 hrs for 5 days; type: ADME, organism-based; parameters: dose 200 mg, time < 24 hr, route oral
[2] = AUC (0 to 24 hrs) in healthy human alveolar cell at 200 mg, po every 12 hrs for 5 days; type: ADME, organism-based, Pneumocyte; parameters: time < 24 hr, dose 200 mg, route oral; settings: alveolar cells
[3] = AUC (0 to 24 hrs) in healthy human lung epithelial lining fluid at 200 mg, po every 12 hrs for 5 days; type: ADME, organism-based; parameters: time < 24 hr, dose 200 mg, route oral
[4] = Cmax in healthy human lung epithelial lining fluid assessed as hydroxyitraconazole at 200 mg, po every 12 hrs for 5 days; type: ADME, organism-based; parameters: dose 200 mg, route oral; settings: in vivo
[5] = Cmax in healthy human plasma at 200 mg, po every 12 hrs for 5 days; type: ADME, organism-based; parameters: dose 200 mg, route oral
[6] = Cmax in healthy human alveolar cell at 200 mg, po every 12 hrs for 5 days; type: ADME, organism-based, Lung, Pneumocyte; parameters: dose 200 mg, route oral; settings: alveolar cells

CCC(C)n1ncn(-c2ccc(N3CCN(c4ccc(OCC5COC(Cn6cncn6)(c6ccc(Cl)cc6Cl)O5)cc4)CC3)cc2)c1=O (stereo unspecified) [ITRACONAZOLE]
AUC at 24 h [1]: 34400 ng·h/mL | AUC at 24 h [2]: 101000 ng·h/mL | AUC at 24 h [3]: 7400 ng·h/mL | Cmax [4]: 5500 ng/mL | Cmax [5]: 2100 ng/mL | Cmax [6]: 500 ng/mL
